Assay results published in patent publication US8653126B2, “Imidazole derivative” (Daiichi Sankyo Company, Limited, priority 2010, dated 2014).

Target: T1, S1P lyase (Mus musculus, UniProt Q8R0X7)
T1 construct: The extirpated thymus was crushed; from tissue; host or cells: thymus of BALB/c mice (thymus extract)
T1 sequence (Q8R0X7 1-568): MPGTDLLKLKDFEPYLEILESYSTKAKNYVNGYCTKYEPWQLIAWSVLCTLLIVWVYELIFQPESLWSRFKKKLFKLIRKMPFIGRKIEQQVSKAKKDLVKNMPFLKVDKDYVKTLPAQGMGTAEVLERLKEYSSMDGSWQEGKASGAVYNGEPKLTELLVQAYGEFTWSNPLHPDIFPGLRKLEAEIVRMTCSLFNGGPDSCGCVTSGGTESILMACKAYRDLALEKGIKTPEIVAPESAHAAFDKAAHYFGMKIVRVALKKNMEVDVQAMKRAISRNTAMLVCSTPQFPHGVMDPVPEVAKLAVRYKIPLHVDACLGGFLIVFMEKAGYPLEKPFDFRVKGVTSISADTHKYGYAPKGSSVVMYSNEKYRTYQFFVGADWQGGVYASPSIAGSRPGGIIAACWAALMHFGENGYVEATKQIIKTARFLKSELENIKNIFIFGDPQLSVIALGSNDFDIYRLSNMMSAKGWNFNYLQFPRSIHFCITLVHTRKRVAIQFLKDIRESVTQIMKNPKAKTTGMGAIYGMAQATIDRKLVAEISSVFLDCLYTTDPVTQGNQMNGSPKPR
Experiment: S1P lyase inhibitory capacity in mice (thymus extract after oral dosing)
Format: in vivo
Conditions: BALB/c mice, single oral dose, S1P lyase activity of thymus extract with [3H]dhS1P
Description: Male BALB/c mice at age 6 weeks were purchased from Charles River Laboratories Japan Inc. Mice that had reached age 7 weeks after 1-week acclimation were used for the experiment. A group of 5 animals was used for the experiment. The necessary amount of the analyte was weighed, and subsequently suspended in a 0.5% MC solution using a mortar and a pestle. The solution to be administered was prepared so as to be 10 mL per 1 kg of body weight. The prepared compound solution was administered orally in a single dose using a stomach tube.
Dipotassium dihydrogen ethylenediaminetetraacetate (EDTA-2K, Nacalai Tesque, Inc.) was dissolved with water for injection so as to be 5% (5% EDTA-2K solution). […] At that time, the thymus was also extirpated. The obtained blood was handled under the condition of room temperature until measurement. […]
The extirpated thymus was crushed by means of either a method using zirconia beads in the presence of 500 μl, of a homogenization buffer (50 mM HEPES-NaOH (pH=7.4), 0.15 M NaCl, 10% Glycerol, 1 mM EDTA, 1 mM DTT, complete protease inhibitor cocktail (Roche, #4693132)), or a method using Potter-Elvehjem type homogenizer after mincing. […] After the proteins of the supernatant were quantified with Bradford method, the supernatant was instantly frozen with liquid nitrogen, and subsequently stored at −80° C. […]

SMILES	S1P lyase inhibition in mice
CCOCn1cc(CO)nc1C(C)=O [Example 1, 1-(1-Ethoxymethyl-4-hydroxymethyl-1H-imidazol-2-yl)ethanone]	inhibited S1P lyase in mice
COCn1cc(CO)nc1C(C)=O [Example 5, 1-(4-Hydroxymethyl-1-methoxymethyl-1H-imidazol-2-yl)ethanone]	inhibited S1P lyase in mice
